Laboratory results reported in US8227470B2, “Combination treatment of solid cancers with antimetabolites and tyrosine kinase inhibitors” (AB Science, priority 2007, dated 2012).
“Also recorded” adds a separate entry of the source.

Tests used:
breast tumour cell lines = assay: WST-1 proliferation assay, breast lines with docetaxel; format: cell-based
Procedure: (§1) Pancreatic, colon and prostate cancer cell lines (generous gift from Dr. Juan Iovanna, INSERM U624, Marseille, France), breast and ovarian cancer cell lines (generous gift from Dr. Patrice Dubreuil, UMR 599 INSERM, Marseille, France), and lung cancer cell line (generous gift from Pr. Christian Auclair, UMR 8113 CNRS) were cultured as monolayers in RPMI 1640 medium containing L-glutamine supplemented with 100 U/mL penicillin and 100 μg/mL streptomycin, and 10% v/v heat-inactivated foetal calf serum (AbCys Lot SO2823S1800) under standard culture conditions (5% CO2, 95% air in humidified chamber at 37° C.).
(§2) During proliferation assay, all cells were grown in medium containing 1% FCS.
(§3) Colorimetric cell proliferation and viability assay (reagent WST-1 purchased from Roche cat N° 1644807)
(§4) The cells were washed once and resuspended in RPMI 1% FCS. […]
(§5) For treatment with combination of AB1010 and gemcitabine, the cells were first resuspended in medium RPMI 1% FCS containing AB1010 at the concentrations of 0, 2, 5 and 10 μM. […] The absorbance of the samples was measured at 490 nm using an EL800 Universal microplate reader (Bio-Tek Instruments Inc.).
(§6) Each sample was done in duplicate, the absorbance values were transferred to an excel file, the average and standard deviation of the duplicates were calculated and expressed as a percentage of the proliferation obtained in absence of treatment. […]

FAK kinase [1] = biological target: T1, FAK kinase (Homo sapiens, UniProt Q05397); assay: SelectScreen kinase Profiling (Invitrogen), purified kinases; format: biochemical; conditions: inhibitor at 1 μM (1,000 nM); for inhibition at 1 µM: read-out: Percentage of inhibition of FAK kinase activity
T1 sequence (Q05397 whole entry): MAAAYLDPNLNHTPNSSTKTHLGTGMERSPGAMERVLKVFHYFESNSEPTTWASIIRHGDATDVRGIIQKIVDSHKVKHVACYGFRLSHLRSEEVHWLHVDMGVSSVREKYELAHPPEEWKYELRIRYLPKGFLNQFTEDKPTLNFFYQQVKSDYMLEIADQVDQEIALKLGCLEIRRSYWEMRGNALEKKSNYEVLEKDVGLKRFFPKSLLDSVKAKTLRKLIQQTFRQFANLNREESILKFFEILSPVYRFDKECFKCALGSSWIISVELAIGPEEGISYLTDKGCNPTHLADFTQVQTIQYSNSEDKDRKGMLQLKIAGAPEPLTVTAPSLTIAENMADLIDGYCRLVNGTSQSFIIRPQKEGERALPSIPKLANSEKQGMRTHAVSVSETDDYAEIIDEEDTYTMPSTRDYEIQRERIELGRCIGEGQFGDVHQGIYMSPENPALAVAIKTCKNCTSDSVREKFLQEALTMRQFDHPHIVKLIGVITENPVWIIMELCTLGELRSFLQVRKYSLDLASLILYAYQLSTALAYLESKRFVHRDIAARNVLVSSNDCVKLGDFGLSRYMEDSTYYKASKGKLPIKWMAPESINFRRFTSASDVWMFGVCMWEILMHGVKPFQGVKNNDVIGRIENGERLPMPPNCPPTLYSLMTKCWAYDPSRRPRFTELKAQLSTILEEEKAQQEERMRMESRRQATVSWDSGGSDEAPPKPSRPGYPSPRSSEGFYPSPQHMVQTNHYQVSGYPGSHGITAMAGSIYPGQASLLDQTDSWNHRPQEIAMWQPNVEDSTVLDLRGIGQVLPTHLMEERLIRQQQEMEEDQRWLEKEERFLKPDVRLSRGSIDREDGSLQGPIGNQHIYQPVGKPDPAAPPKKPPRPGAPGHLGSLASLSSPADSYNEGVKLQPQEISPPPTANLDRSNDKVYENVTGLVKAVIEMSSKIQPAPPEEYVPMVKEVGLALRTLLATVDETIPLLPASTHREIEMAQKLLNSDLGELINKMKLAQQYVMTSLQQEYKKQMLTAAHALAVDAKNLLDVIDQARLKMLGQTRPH

Mia Paca-2 = assay: WST-1 cell proliferation and viability assay; format: cell-based; conditions: for sensitization to gemcitabine by pre-treatment: MiaPaca-2, pre-treatment 12-16 hours (AB1010 5 and 10 μM; STI571 up to 10 μM) before gemcitabine
Procedure: as §1, §2, §3
(§7) The cells were washed once and resuspended in RPMI 1% FCS. Cells at 1.10^4/50 μl were plated per well of a 96 well plate.
(§8) Drug dilutions were prepared in a 96 well plate and obtained by sequential dilutions of AB1010 or gemcitabine in RPMI 1.
(§9) Treatment was started by the addition of 50 μl of a 2× concentrated drug solution to a final volume of 100 μl.
For treatment with combination of AB1010 and gemcitabine, the cells were first resuspended in medium RPMI 1% FCS containing AB1010 at the concentrations of 0, 2, 5 and 10 μM. 1.10^4 cells/50 μl were plated per well of a 96 wells plate and the plates placed in the incubator o/n before treatment with cytotoxic agents. Cytotoxic agent treatment was initiated by addition of 50 μl of a 2× drug dilution (and containing the respective AB1010 drug concentration) to a final volume of 100 μl. […] The absorbance of the samples was measured at 490 nm using an EL800 Universal microplate reader (Bio-Tek Instruments Inc.).
A background control without cells was used as a blank for the ELISA reader. […]
as §6

Panc-1 = assay: WST-1 cell proliferation and viability assay; format: cell-based
Procedure: as §1, §2, §3, §7, §8, §9
(§10) For treatment with combination of AB1010 and gemcitabine, the cells were first resuspended in medium RPMI 1% FCS containing AB1010 at the concentrations of 0, 2, 5 and 10 μM. 1.10^4 cells/50 μl were plated per well of a 96 wells plate and the plates placed in the incubator o/n before treatment with cytotoxic agents. Cytotoxic agent treatment was initiated by addition of 50 μl of a 2× drug dilution (and containing the respective AB1010 drug concentration) to a final volume of 100 μl. AB1010 final concentrations remained 0, 2, 5 and 10 μM. After incubating for 48-72 hours at 37° C., 10 μl of a ½ dilution of WST-1 reagent was added to each well and the plates were returned to the incubator for an additional 4 hours. The absorbance of the samples was measured at 490 nm using an EL800 Universal microplate reader (Bio-Tek Instruments Inc.).
(§11) A background control without cells was used as a blank for the ELISA reader.
(§12) The positive control of the assay corresponds to the cell proliferation obtained in the absence of drug treatment (100% proliferation).
(§13) Each sample was done in duplicate, the absorbance values were transferred to an excel file, the average and standard deviation of the duplicates were calculated and expressed as a percentage of the proliferation obtained in absence of treatment.
(§14) To determine the IC50 concentration of gemcitabine on pancreatic cell lines, the cells were grown in 1% FCS and exposed to different doses of the drug.
(§15) To determine the IC50 concentration of gemcitabine used in association with AB1010, pancreatic cell lines grown in 1% FCS were pre-treated with AB1010 for about 12-16 hours before being exposed to different doses of the gemcitabine.

Capan-2 = assay: WST-1 cell proliferation and viability assay; format: cell-based
Procedure: as §1, §2, §3, §7, §8, §9, §10, §11, §12, §13, §14, §15

BxPC-3 = assay: WST-1 cell proliferation and viability assay; format: cell-based
Procedure: as §1, §2, §3, §7, §8, §9, §10, §11, §12, §13, §14, §15

FAK kinase [2] = biological target: T1, FAK kinase; assay: Western blot of FAK activation status (anti PY / anti phospho FAK); format: cell-based; conditions: FIG. 3B
From the text: Pancreatic tumour cells lines are described to express high level of the non-receptor tyrosine kinase FAK that contributes to resistance to gemcitabine. […] By the use of either anti PY or anti phospho FAK antibodies, we studied by western blot assay the activation status of FAK kinase.

colon HT-29 = assay: WST-1 proliferation assay, sensitization to gemcitabine; format: cell-based; conditions: colon HT-29, the one resistant line in which sensitivity was not restored
Procedure: as §1, §2, §3, §7, §10, §13
(§16) In order to evaluate the ability of AB1010 to sensitize other tumour types to gemcitabine, we performed similar studies on prostate, lung, ovarian and colon tumour cell lines.

[3] = system: ovarian OVCAR-3 cell lines; assay: as above; format: cell-based; conditions: AB1010 pre-treatment
Procedure: as §1, §2, §3, §7, §10, §13, §16

[4] = system: prostate DU145, and C4-2 cell lines; assay: as above; format: cell-based; conditions: AB1010 pre-treatment
Procedure: as §1, §2, §3, §7, §10, §13, §16

[5] = system: lung A549 and H1299 cell lines; assay: as above; format: cell-based; conditions: AB1010 pre-treatment
Procedure: as §1, §2, §3, §7, §10, §13, §16

[6] = system: rectum HRT-18, and colon Caco-2 and SW-480 cell lines; assay: as above; format: cell-based; conditions: rectum HRT-18, colon Caco-2 and SW-480; AB1010 pre-treatment
Procedure: as §1, §2, §3, §7, §10, §13, §16

HRT-18 = assay: WST-1 proliferation assay, sensitization to Irinotecan; format: cell-based; conditions: most resistant colorectal cell line HRT-18; AB1010 pre-treatment
Procedure: as §1, §2, §3, §7
[…] The absorbance of the samples was measured at 490 nm using an EL800 Universal microplate reader (Bio-Tek Instruments Inc.).
as §6

[7] = system: cell line (Ba/F3-derived) expressing JMΔ27; assay: Apoptosis induction in Ba/F3-derived cell line; format: cell-based
Procedure: (§17) In this experiment, after 48 hours, 0.1 μM AB1010 induced apoptosis of approximately 50% versus control cells in which 10% of cells were apoptotic. In addition, a separate cell line (Ba/F3-derived) expressing JMΔ27 was tested and apoptosis was induced to a level of approximately 85%.

[8] = system: ovarian tumour cell lines; assay: WST-1 proliferation assay, ovarian lines with paclitaxel; format: cell-based
Procedure: as §1, §2, §3, §4, §5, §6

[9] = system: human mast cell line expressing the JMΔ27 mutated c-kit; assay: Apoptosis induction in mast cell line; format: cell-based; conditions: 0.1 μM, after 48 hours; control cells 10% apoptotic
Procedure: as §17

For `Cc1ccc(NC(=O)c2ccc(CN3CCN(C)CC3)cc2)cc1Nc1nc(-c2cccnc2)cs1` [AB1010, 4-(4-Methyl-piperazin-1-ylmethyl)-N-[4-methyl-3-(4-pyridin-3-yl-thiazol-2-ylamino)-phenyl]-benzamide], the sensitization to docetaxel (breast tumour cell lines; docetaxel-resistant breast cancer cell lines, AB1010 pre-treatment) was “good sensitization by AB1010 for 6 out of 11”, the inhibition at 1 µM (FAK kinase [1]) was 21% and the “sensitization to gemcitabine by pre-treatment” value (Mia Paca-2) was “reverse resistance”. For the same molecule, the “sensitization to gemcitabine by pre-treatment” value (Panc-1; Panc-1, AB1010 5 and 10 μM pre-treatment 12-16 hours before gemcitabine) was “reverse resistance”, the “sensitization to gemcitabine by pre-treatment” value (Capan-2; gemcitabine-sensitive Capan-2, AB1010 pre-treatment) was “not observed” and the “sensitization to gemcitabine by pre-treatment” value (BxPC-3; gemcitabine-sensitive BxPC-3, AB1010 pre-treatment) was “not observed”. The “inhibition of FAK autoactivation” value (FAK kinase [2]) was “inhibits partially”, the “restoration of sensitivity to gemcitabine” value (colon HT-29) was “except one” and the sensitization to gemcitabine [3] was “AB1010 sensitizes ovarian OVCAR-3 cell lines to gemcitabine”. For the same molecule, the sensitization to gemcitabine [4] was “AB1010 sensitizes prostate DU145, and C4-2 cell lines to gemcitabine”, the sensitization to gemcitabine [5] was “AB1010 sensitizes lung A549 and H1299 cell lines to gemcitabine” and the sensitization to gemcitabine [6] was “AB1010 sensitizes rectum HRT-18, and colon Caco-2 and SW-480”. For the same molecule, the “sensitization to Irinotecan (CPT-11)” value (HRT-18) was “good sensitization”, the apoptosis induced [7] was “approximately 85%” and the “restoration of sensitivity to Paclitaxel” value ([8]; resistant ovarian tumour cell lines, AB1010 pre-treatment) was “restores sensitivity”. For the same molecule, the apoptosis induced [9] was “approximately 50%”.
With `CC(=O)O[C@@]12CO[C@@H]1C[C@H](O)[C@@]1(C)C(=O)[C@H](O)C3=C(C)[C@@H](OC(=O)[C@H](O)[C@@H](NC(=O)OC(C)(C)C)c4ccccc4)C[C@@](O)([C@@H](OC(=O)c4ccccc4)[C@H]21)C3(C)C` [Docetaxel, reference compound] the “sensitivity to Docetaxel” value (breast tumour cell lines; breast cancer cell lines, drug alone) was “most of the breast cancer cell lines tested exhibit resistance”.
For `CC(C)(C)n1nc(-c2ccc(Cl)cc2)c2c(N)ncnc21` [PP2], the “Percentage of inhibition of FAK kinase activity” value (FAK kinase [1]) was 75%.
For `CC(=O)O[C@H]1C(=O)[C@@]2(C)[C@H]([C@H](OC(=O)c3ccccc3)[C@]3(O)C[C@H](OC(=O)[C@H](O)[C@@H](NC(=O)c4ccccc4)c4ccccc4)C(C)=C1C3(C)C)[C@]1(OC(C)=O)CO[C@@H]1C[C@@H]2O` [Paclitaxel, reference compound], the “sensitivity to Paclitaxel” value ([8]; five ovarian cell lines, drug alone) was “Three out of the five ovarian cell lines tested exhibit strong sensitivity”.
In the case of `Cc1ccc(NC(=O)c2ccc(CN3CCN(C)CC3)cc2)cc1Nc1nccc(-c2cccnc2)n1` [STI571], the inhibition at 1 µM (FAK kinase [1]) is reported as 9% and the “sensitization to gemcitabine by pre-treatment” value (Mia Paca-2) is reported as “does not sensitize; also recorded: does not lead to the same result”.
`Nc1ccn(C2OC(CO)C(O)C2(F)F)c(=O)n1` (stereo not shown) [gemcitabine, 4-amino-1-[3,3-difluoro-4-hydroxy-5-(hydroxymethyl)tetrahydrofuran-2-yl]-1H-pyrimidin-2-one, reference compound] was tested, and the sensitivity to gemcitabine (Mia Paca-2; Mia Paca-2, 1% FCS, drug alone) was “lack of sensitivity”, the sensitivity to gemcitabine (Panc-1; Panc-1, 1% FCS, drug alone) was “lack of sensitivity” and the IC50 (Capan-2; Homo sapiens, Capan-2, 1% FCS, drug alone, read-out: IC50, inhibition of proliferation) was 2 to 20 nM. It also gave an IC50 (BxPC-3; Homo sapiens, BxPC-3, 1% FCS, drug alone, read-out: IC50, inhibition of proliferation) of 2 to 20 nM.
